Laboratory results from PubChem BioAssay AID1259407 (Chemical Carcinogenesis Research Information System (CCRIS), 2018).
Calls of active or inactive are those of the source. How the calls were made is not given here.

Tested on: CCRIS mutagenicity, Ames/micronucleus/aberration tests
Experiment: CCRIS mutagenicity studies
[1] = Test System: AMES SALMONELLA TYPHIMURIUM, Strain/Indicator: TA98, Metabolic Activation: NONE, Method: STANDARD PLATE
[2] = Test System: AMES SALMONELLA TYPHIMURIUM, Strain/Indicator: TA98, Metabolic Activation: RAT, LIVER, S-9, AROCLOR 1254, Method: STANDARD PLATE
[3] = Test System: AMES SALMONELLA TYPHIMURIUM, Strain/Indicator: TA100, Metabolic Activation: NONE, Method: STANDARD PLATE
[4] = Test System: AMES SALMONELLA TYPHIMURIUM, Strain/Indicator: TA100, Metabolic Activation: RAT, LIVER, S-9, AROCLOR 1254, Method: STANDARD PLATE
[5] = Test System: AMES SALMONELLA TYPHIMURIUM, Strain/Indicator: TA1535, Metabolic Activation: NONE, Method: STANDARD PLATE
[6] = Test System: AMES SALMONELLA TYPHIMURIUM, Strain/Indicator: TA1535, Metabolic Activation: RAT, LIVER, S-9, AROCLOR 1254, Method: STANDARD PLATE
[7] = Test System: AMES SALMONELLA TYPHIMURIUM, Strain/Indicator: TA1537, Metabolic Activation: NONE, Method: STANDARD PLATE
[8] = Test System: AMES SALMONELLA TYPHIMURIUM, Strain/Indicator: TA1537, Metabolic Activation: RAT, LIVER, S-9, AROCLOR 1254, Method: STANDARD PLATE
[9] = Test System: AMES SALMONELLA TYPHIMURIUM, Strain/Indicator: TA1538, Metabolic Activation: NONE, Method: STANDARD PLATE
[10] = Test System: AMES SALMONELLA TYPHIMURIUM, Strain/Indicator: TA1538, Metabolic Activation: RAT, LIVER, S-9, AROCLOR 1254, Method: STANDARD PLATE

SMILES	mutagenic call [1]	mutagenic call [2]	mutagenic call [3]	mutagenic call [4]	mutagenic call [5]	mutagenic call [6]	mutagenic call [7]	mutagenic call [8]	further results
O.O.O.O=C([O-])[C@H]([O-])[C@@H]([O-])C(=O)[O-].O=C([O-])[C@H]([O-])[C@@H]([O-])C(=O)[O-].[K+].[K+].[Sb+3].[Sb+3]	inactive; negative	inactive; negative	inactive; negative	inactive; negative	inactive; negative	inactive; negative	inactive; negative	inactive; negative	mutagenic call (Test System: AMES SALMONELLA TYPHIMURIUM, Strain/Indicator: TA98, Metabolic Activation: HAMSTER, LIVER, S-9, AROCLOR 1254, Method: STANDARD PLATE): inactive; negative; mutagenic call (Test System: AMES SALMONELLA TYPHIMURIUM, Strain/Indicator: TA100, Metabolic Activation: HAMSTER, LIVER, S-9, AROCLOR 1254, Method: STANDARD PLATE): inactive; negative; mutagenic call (Test System: AMES SALMONELLA TYPHIMURIUM, Strain/Indicator: TA1535, Metabolic Activation: HAMSTER, LIVER, S-9, AROCLOR 1254, Method: STANDARD PLATE): inactive; negative; mutagenic call (Test System: AMES SALMONELLA TYPHIMURIUM, Strain/Indicator: TA1537, Metabolic Activation: HAMSTER, LIVER, S-9, AROCLOR 1254, Method: STANDARD PLATE): inactive; negative; mutagenic call (Test System: AMES SALMONELLA TYPHIMURIUM, Strain/Indicator: TA1538, Metabolic Activation: HAMSTER, LIVER, S-9, AROCLOR 1254, Method: STANDARD PLATE): inactive; negative; mutagenic call [9]: inactive; negative; mutagenic call [10]: inactive; negative; mutagenic call (Test System: MOUSE LYMPHOMA, Strain/Indicator: L5178Y (TK+/TK-), Metabolic Activation: NONE, Method: SUSPENSION/PLATE): active; positive. reevaluation of results: positive; mutagenic call (Test System: MOUSE LYMPHOMA, Strain/Indicator: L5178Y (TK+/TK-), Metabolic Activation: RAT, LIVER, S-9, AROCLOR 1254, Method: SUSPENSION/PLATE): active; positive. reevaluation of results: positive
Cc1ccc2c(ccc3ccccc32)c1	inactive; negative	–	inactive; negative	–	–	–	–	–	mutagenic call (Test System: AMES SALMONELLA TYPHIMURIUM, Strain/Indicator: TA97, Metabolic Activation: NONE, Method: STANDARD PLATE): inactive; negative; mutagenic call (Test System: AMES SALMONELLA TYPHIMURIUM, Strain/Indicator: TA97, Metabolic Activation: RAT, LIVER, S-9, PCB, Method: STANDARD PLATE): active; positive; mutagenic call (Test System: AMES SALMONELLA TYPHIMURIUM, Strain/Indicator: TA98, Metabolic Activation: RAT, LIVER, S-9, PCB, Method: STANDARD PLATE): active; positive; mutagenic call (Test System: AMES SALMONELLA TYPHIMURIUM, Strain/Indicator: TA100, Metabolic Activation: RAT, LIVER, S-9, PCB, Method: STANDARD PLATE): active; positive
C=C(C)C(=O)/C(=C\C(=O)O)OC	inactive; negative	–	inactive; negative	–	–	–	–	–	mutagenic call (Test System: AMES SALMONELLA TYPHIMURIUM, Strain/Indicator: TA98, Metabolic Activation: RAT LIVER S-9, DELOREM 103, Method: STANDARD PLATE): inactive; negative; mutagenic call (Test System: AMES SALMONELLA TYPHIMURIUM, Strain/Indicator: TA98, Metabolic Activation: RAT, LIVER, MICROSOMES, PHENOBARBITAL, Method: STANDARD PLATE): inactive; negative; mutagenic call (Test System: AMES SALMONELLA TYPHIMURIUM, Strain/Indicator: TA100, Metabolic Activation: NONE, Method: PREINCUBATION): inactive; negative; mutagenic call (Test System: AMES SALMONELLA TYPHIMURIUM, Strain/Indicator: TA100, Metabolic Activation: RAT LIVER S-9, DELOREM 103, Method: STANDARD PLATE): inactive; negative; mutagenic call (Test System: AMES SALMONELLA TYPHIMURIUM, Strain/Indicator: TA100, Metabolic Activation: RAT, LIVER, MICROSOMES, PHENOBARBITAL, Method: STANDARD PLATE): inactive; negative; mutagenic call (Test System: AMES SALMONELLA TYPHIMURIUM, Strain/Indicator: TA100, Metabolic Activation: RAT, LIVER, S-9, PHENOBARBITAL, Method: PREINCUBATION): inactive; negative
O=C(O)c1nn(Cc2ccc(Cl)cc2Cl)c2ccccc12	inactive; negative	inactive; negative	inactive; negative	inactive; negative	inactive; negative	inactive; negative	inactive; negative	inactive; negative	mutagenic call [9]: inactive; negative; mutagenic call [10]: inactive; negative; mutagenic call (Test System: CHINESE HAMSTER OVARY, Strain/Indicator: CHO-K1-BH4 (HPRT), Metabolic Activation: NONE): inactive; negative; mutagenic call (Test System: CHINESE HAMSTER OVARY, Strain/Indicator: CHO-K1-BH4 (HPRT), Metabolic Activation: RAT, LIVER, S-9, AROCLOR 1254): inactive; negative
O=[N+]([O-])c1cccc(NS(=O)(=O)c2cccc3cccnc23)c1	inactive; negative	inactive; negative	inactive; negative	inactive; negative	inactive; negative	inactive; negative	inactive; negative	inactive; negative	–
Cc1cc(Cc2cc(C)cc(C(C)(C)C)c2O)c(O)c(C(C)(C)C)c1	inactive; negative	–	inactive; negative	–	–	–	–	–	mutagenic call (Test System: AMES SALMONELLA TYPHIMURIUM, Strain/Indicator: TA98, Metabolic Activation: S-9, Method: STANDARD PLATE): inactive; negative; mutagenic call (Test System: AMES SALMONELLA TYPHIMURIUM, Strain/Indicator: TA100, Metabolic Activation: S-9, Method: STANDARD PLATE): inactive; negative
COc1ccc(-c2nc(-c3ccc(C)cc3)c(-c3ccc(C)cc3)[nH]2)cc1OC	active; positive	–	active; positive	–	–	–	–	–	mutagenic call (Test System: AMES SALMONELLA TYPHIMURIUM, Strain/Indicator: TA98, Metabolic Activation: RAT LIVER S-9, 3-METHYLCHOLANTHRENE, SODIUM PHENOBARBITAL, Method: STANDARD PLATE): inactive; negative; mutagenic call (Test System: AMES SALMONELLA TYPHIMURIUM, Strain/Indicator: TA100, Metabolic Activation: RAT LIVER S-9, 3-METHYLCHOLANTHRENE, SODIUM PHENOBARBITAL, Method: STANDARD PLATE): inactive; negative
O=C1OC(=C(Cl)Cl)C=C1Cl	–	–	active; positive	–	–	–	–	–	–
